Laboratory results: patent US20240182531A1, “KV1.3 Blockers” (priority 2021, published 2024)
“And” between values parts separate entries of the source, which are not always exact repeats. Equal entries are not always repeated. Where two headings read alike, the source gives them in different places. Where a SMILES comes first, the peptide text is derived from it. Bridges are numbered along the chain shown (N, C = ends). [ ]: non-standard residue; d: D form. Nle = CCCC[C@H](N)C(=O)O

Tests used:
[1] = Pharmacokinetic characterisation after single s.c. injection in Sprague Dawley rats; details: male, rat, plasma, sc, 100 nmol/kg
Description: Sprague Dawley (males with a body weight of approximately 250-350 g) were given a single subcutaneous (s.c.) injection of each peptide to be tested.
Following s.c. administration of the selected compounds (dose 100 nmol/kg, dosing volume either 2 mL/kg), blood samples were drawn at 5 min, 15 min, 30 min, 60 min, 2 h, 3 h, 4 h, 6 h, 8 h post-dose. At each sampling time point, samples from the rats were drawn by sublingual bleeding. After last sampling the rats were sacrificed by O2/CO2 anaesthesia. The dosing vehicle was 10 mM phosphate, 0.8% NaCl, 0.05% Polysorbate 20 (pH 6.0).
Plasma samples were analyzed after solid phase extraction (SPE) by liquid chromatography mass spectrometry (LC-MS/MS). Mean plasma concentrations were used for calculation of the pharmacokinetic parameters using the non-compartmental approach in Phoenix WinNonlin 6.4 or a later version. Plasma terminal elimination half-life (T½) was determined as In(2)/λz where λz is the magnitude of the slope of the log linear regression of the log concentration versus time profile during the terminal phase. AUCinf is the area under the plasma concentration—time curve extrapolated to infinity (AUCinf=AUClast+Clast/λz, where Clast is the last observed plasma concentration). Cmax is the maximum observed concentration, occurring at Tmax.

[2] = molecular target: T1, human Kv1.3 voltage-gated K+ channel (Homo sapiens, UniProt P22001); assay: Kv1.3 blocker activity in FLIPR thallium assay; assay type: cell-based
T1 construct: host or cells: CHO-DUKX
T1 sequence (P22001 whole entry): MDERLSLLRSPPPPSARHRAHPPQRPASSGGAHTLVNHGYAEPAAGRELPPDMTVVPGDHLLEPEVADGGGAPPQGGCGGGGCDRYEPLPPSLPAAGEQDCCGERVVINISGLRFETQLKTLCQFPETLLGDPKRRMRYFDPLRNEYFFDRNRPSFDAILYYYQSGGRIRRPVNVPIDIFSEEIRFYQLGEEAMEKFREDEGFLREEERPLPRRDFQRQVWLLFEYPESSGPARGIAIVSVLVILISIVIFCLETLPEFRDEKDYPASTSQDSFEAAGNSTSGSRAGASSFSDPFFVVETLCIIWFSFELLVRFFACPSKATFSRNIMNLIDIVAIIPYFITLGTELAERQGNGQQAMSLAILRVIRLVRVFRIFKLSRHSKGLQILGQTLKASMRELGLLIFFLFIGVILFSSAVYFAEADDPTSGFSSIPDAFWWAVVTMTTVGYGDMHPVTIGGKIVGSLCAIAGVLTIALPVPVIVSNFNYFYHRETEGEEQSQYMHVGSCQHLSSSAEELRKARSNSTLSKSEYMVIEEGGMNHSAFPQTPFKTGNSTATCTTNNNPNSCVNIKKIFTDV
Description: A human Kv1.3 voltage-gated K+ channel cell line was purchased from Perkin Elmer (#TDS-AX-010-C-1). The cell line is based on CHO-DUKX cells stably transfected with the human Kv1.3 voltage-gated K+ channel.
The cell line was grown in MEMα with nucleotides, GlutaMAX (Gibco #32571028), 10% Foetal Bovine Serum (FBS), 0.4 mg/ml Geneticin, 100 units/ml Penicillin, and 100 μg/ml Streptomycin and seeded at 10.000 cells/well in black poly-D-lysine-coated 96 well plates.
The FluxOR™ Potassium Ion Channel Assay (Invitrogen #F10016) was used to quantitate flux of thallium ions into the cells as a response to Kv1.3 activation with a stimulus buffer causes depolarization of the cell membrane, thereby generating a fluorescent signal, proportional to channel activity. The assay was performed as described by the assay kit manufacturer including a compound pre-incubation step (30 min, 37° C., 5% CO2) in assay buffer containing 0.02% W/v casein from bovine milk (Sigma #C4765) prior to cell membrane depolarization using a final stimuli buffer composition corresponding to 0.2× FluxOR™ chloride-free buffer, 5 mM K2SO4, 1 mM Tl2SO4. The fluorescence responses were recorded and quantified (maximum response at 50 s, 37° C.) using the FLIPR® Tetra High Throughput Screening System (Molecular Devices, Inc.).
IC50 can be regarded as a measure of potency of inhibition for the respective compound. The IC50 value is a measure of the concentration of an inhibitor required to achieve half of that compound's maximal inhibition of ion channel activity in a given assay.

[3] = molecular target: T2, human Kv1.1 (Homo sapiens, UniProt Q09470); assay: cell-based
T2 construct: expressed in transfected cells; host or cells: CHO
T2 sequence (Q09470 whole entry): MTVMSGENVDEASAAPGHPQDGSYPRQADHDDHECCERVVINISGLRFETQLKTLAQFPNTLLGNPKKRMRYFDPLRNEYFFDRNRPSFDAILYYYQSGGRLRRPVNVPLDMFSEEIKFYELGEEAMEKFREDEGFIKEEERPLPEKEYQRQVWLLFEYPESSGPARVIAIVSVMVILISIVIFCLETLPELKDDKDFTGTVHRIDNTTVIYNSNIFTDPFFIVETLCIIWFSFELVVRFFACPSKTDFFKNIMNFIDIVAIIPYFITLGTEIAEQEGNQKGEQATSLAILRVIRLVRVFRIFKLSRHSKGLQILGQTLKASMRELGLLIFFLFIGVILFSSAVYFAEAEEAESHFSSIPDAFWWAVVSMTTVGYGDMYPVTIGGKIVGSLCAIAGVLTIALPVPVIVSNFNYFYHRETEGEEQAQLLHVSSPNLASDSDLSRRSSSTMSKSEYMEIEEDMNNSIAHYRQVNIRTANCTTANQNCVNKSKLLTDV

[4] = system: KLH ear inflammation model in rats; assay type: in vivo, rat
[5] = molecular target: T3, human Kv1.2 (Homo sapiens, UniProt P16389); assay: cell-based
T3 construct: expressed in transfected cells; host or cells: CHO
T3 sequence (P16389 whole entry): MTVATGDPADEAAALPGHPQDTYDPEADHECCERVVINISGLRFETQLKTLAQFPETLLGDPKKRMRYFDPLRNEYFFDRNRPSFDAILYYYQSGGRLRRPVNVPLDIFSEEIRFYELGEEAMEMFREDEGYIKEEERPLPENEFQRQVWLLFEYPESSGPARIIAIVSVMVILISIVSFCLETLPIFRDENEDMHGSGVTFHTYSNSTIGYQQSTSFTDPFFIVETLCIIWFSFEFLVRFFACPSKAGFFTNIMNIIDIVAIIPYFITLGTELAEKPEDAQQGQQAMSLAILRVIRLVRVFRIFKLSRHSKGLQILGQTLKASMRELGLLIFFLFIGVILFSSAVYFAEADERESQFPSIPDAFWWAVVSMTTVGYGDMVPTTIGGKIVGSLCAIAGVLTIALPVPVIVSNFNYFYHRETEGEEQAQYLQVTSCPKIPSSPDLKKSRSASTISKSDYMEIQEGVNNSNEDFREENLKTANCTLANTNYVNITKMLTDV

[6] = molecular target: Rat whole blood (Rattus norvegicus, UniProt P15384); assay type: cell-based
Chain of Rat whole blood (P15384 whole entry): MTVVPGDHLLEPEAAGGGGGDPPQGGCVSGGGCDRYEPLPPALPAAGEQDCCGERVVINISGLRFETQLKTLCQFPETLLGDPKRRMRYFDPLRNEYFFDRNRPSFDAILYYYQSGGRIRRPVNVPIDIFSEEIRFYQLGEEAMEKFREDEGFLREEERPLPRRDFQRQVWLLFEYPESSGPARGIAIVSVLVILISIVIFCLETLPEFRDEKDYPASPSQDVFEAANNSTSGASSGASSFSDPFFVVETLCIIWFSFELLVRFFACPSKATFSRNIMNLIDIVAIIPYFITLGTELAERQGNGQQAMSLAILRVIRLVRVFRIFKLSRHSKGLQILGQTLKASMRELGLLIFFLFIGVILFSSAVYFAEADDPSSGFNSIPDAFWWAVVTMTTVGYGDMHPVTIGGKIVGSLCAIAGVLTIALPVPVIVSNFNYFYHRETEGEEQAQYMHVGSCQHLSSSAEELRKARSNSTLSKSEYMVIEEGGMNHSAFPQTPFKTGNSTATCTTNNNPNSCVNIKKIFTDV

[7] = molecular target: T4, human Kv1.6 (Homo sapiens, UniProt P17658); assay: cell-based
T4 construct: expressed in transfected cells; host or cells: CHO
T4 sequence (P17658 whole entry): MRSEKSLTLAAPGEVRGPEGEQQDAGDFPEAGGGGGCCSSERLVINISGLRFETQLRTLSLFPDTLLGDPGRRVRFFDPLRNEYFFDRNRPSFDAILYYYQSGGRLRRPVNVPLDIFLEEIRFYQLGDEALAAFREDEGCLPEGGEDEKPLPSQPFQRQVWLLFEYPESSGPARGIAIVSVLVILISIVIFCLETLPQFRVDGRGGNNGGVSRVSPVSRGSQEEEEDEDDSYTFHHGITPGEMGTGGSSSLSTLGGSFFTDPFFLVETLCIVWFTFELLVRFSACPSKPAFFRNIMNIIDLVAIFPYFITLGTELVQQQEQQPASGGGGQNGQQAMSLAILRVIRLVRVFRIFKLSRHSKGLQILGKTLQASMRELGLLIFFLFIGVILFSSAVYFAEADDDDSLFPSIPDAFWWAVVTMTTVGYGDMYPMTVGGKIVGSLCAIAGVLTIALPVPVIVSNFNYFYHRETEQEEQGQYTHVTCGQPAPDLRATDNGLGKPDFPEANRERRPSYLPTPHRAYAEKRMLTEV

[8] = ratio of patch clamp IC50 values
[9] = 100 nmol/kg SC 24 hrs prior to KLH ear challenge, +/− SD
[10] = IL-17A release, thapsigargin, 24 Hr, at least 2 replicates

| Structure (SMILES) | AUC(0-inf) [1] [µM·h] | Cmax [1] [nM] | half-life [1] [h] | IC50 [2] [nM] | Selectivity ratio Kv1.1/Kv1.3 [3, 8] | % inhibition of ear thickness (AUC of Δ ear thickness 0-48 hours) [4, 9] | Selectivity ratio Kv1.2/Kv1.3 [5, 8] | IC50 [6, 10] [nM] | Selectivity ratio Kv1.6/Kv1.3 [7, 8] | Selectivity ratio Kv1.1/Kv1.3 [3] | % inhibition of ear thickness (AUC of Δ ear thickness 0-48 hours) ([4]; rat, in vivo) [%] | Selectivity ratio Kv1.2/Kv1.3 [5] | IC50 [6] [nM] | Selectivity ratio Kv1.6/Kv1.3 [7] |
| --- | --- | --- | --- | --- | --- | --- | --- | --- | --- | --- | --- | --- | --- | --- |
| CCCC[C@H](NC(=O)[C@@H]1CCCN1)C(=O)N[C@@H](CCC(=O)O)C(=O)N[C@@H](CCCC)C(=O)N[C@@H](CCCNC(=N)N)C(=O)N[C@H]1CSSC[C@@H]2NC(=O)[C@H](CCCCN)NC(=O)CNC(=O)[C@H](Cc3ccccc3)NC(=O)[C@H]([C@@H](C)CC)NC(=O)[C@H](CO)NC(=O)CNC(=O)[C@H]([C@@H](C)CC)NC(=O)[C@H](C)NC(=O)[C@H](C)NC(=O)[C@H](CC(C)C)NC(=O)[C@@H]3CSSC[C@@H](C(=O)N[C@@H](Cc4ccc(O)cc4)C(=O)N4CCC[C@H]4C(=O)N[C@@H](CCCNC(=N)N)C(=O)O)NC(=O)[C@H](CCCCN)NC(=O)[C@H](CSSC[C@H](NC(=O)[C@H](CCC(=O)O)NC(=O)[C@H](C(C)C)NC(=O)[C@H](CO)NC(=O)[C@H](C)NC(=O)[C@H](Cc4c[nH]cn4)NC1=O)C(=O)N[C@@H](CCCCN)C(=O)N[C@@H](CCC(N)=O)C(=O)N[C@@H](CCCCN)C(=O)N3)NC(=O)[C@H](CCCCN)NC(=O)[C@H](CCCCN)NC(=O)[C@H](CC(N)=O)NC(=O)[C@H](CCCC)NC2=O [compound 4] (H-P[Nle]E[Nle]RCHASVECKQKCLAAIGSIFGKC[Nle]NKKCKCYPR-OH; disulfide 6-27, 12-32, 16-34) | 0.138 | 91.8 | 2.7 | 0.15 | – | – | – | – | – | – | – | – | – | – |
| CC[C@H](C)[C@@H]1NC(=O)[C@H](C)NC(=O)[C@H](C)NC(=O)[C@H](CC(C)C)NC(=O)[C@@H]2CSSC[C@@H](C(=O)N[C@@H](Cc3ccc(O)cc3)C(=O)N3CCC[C@H]3C(=O)N[C@@H](CCCNC(=N)N)C(N)=O)NC(=O)[C@H](CCCCN)NC(=O)[C@@H]3CSSC[C@H](NC(=O)[C@H](CCC(=O)O)NC(=O)[C@H](C(C)C)NC(=O)[C@H](CO)NC(=O)[C@H](C)NC(=O)[C@H](CO)NC(=O)[C@@H](NC(=O)[C@H](CCCNC(=N)N)NC(=O)[C@H](CCSC)NC(=O)[C@H](CC(=O)O)NC(=O)[C@H](CCSC)NC(=O)[C@@H](N)CC(N)=O)CSSC[C@H](NC(=O)[C@H](CCCCN)NC(=O)CNC(=O)[C@H](Cc4ccccc4)NC(=O)[C@H]([C@@H](C)CC)NC(=O)[C@H](CO)NC(=O)CNC1=O)C(=O)N[C@@H](CCSC)C(=O)N[C@@H](CC(N)=O)C(=O)N[C@@H](CCCCN)C(=O)N[C@@H](CCCCN)C(=O)N3)C(=O)N[C@@H](CCCCN)C(=O)N[C@@H](CCC(N)=O)C(=O)N[C@@H](CCCCN)C(=O)N2 [compound 56] (H-NMDMRCSASVECKQKCLAAIGSIFGKCMNKKCKCYPR-NH2; disulfide 6-27, 12-32, 16-34) | – | – | – | – | >27500 | 25.1 (+/−6.3) % | 803 | 0.69 | >27500 | – | – | – | – | – |
| CCCC[C@H](NC(=O)[C@@H]1CCCN1)C(=O)N[C@@H](CCC(=O)O)C(=O)N[C@@H](CCCC)C(=O)N[C@@H](CCCNC(=N)N)C(=O)N[C@H]1CSSC[C@@H]2NC(=O)[C@H](CCCCN)NC(=O)CNC(=O)[C@H](Cc3ccccc3)NC(=O)[C@H]([C@@H](C)CC)NC(=O)[C@H](CO)NC(=O)CNC(=O)[C@H]([C@@H](C)CC)NC(=O)[C@H](C)NC(=O)[C@H](C)NC(=O)[C@H](CC(C)C)NC(=O)[C@@H]3CSSC[C@@H](C(=O)N[C@@H](Cc4ccc(O)cc4)C(=O)N4CCC[C@H]4C(=O)N[C@@H](CCCNC(=N)N)C(=O)O)NC(=O)[C@H](CCCCN)NC(=O)[C@H](CSSC[C@H](NC(=O)[C@H](CCC(=O)O)NC(=O)[C@H](C(C)C)NC(=O)[C@H](CO)NC(=O)[C@H](C)NC(=O)[C@H](CO)NC1=O)C(=O)N[C@@H](CCCCN)C(=O)N[C@@H](CCC(N)=O)C(=O)N[C@@H](CCCCN)C(=O)N3)NC(=O)[C@H](CCCCN)NC(=O)[C@H](CCCCN)NC(=O)[C@H](CC(N)=O)NC(=O)[C@H](CCCC)NC2=O [compound 14] (H-P[Nle]E[Nle]RCSASVECKQKCLAAIGSIFGKC[Nle]NKKCKCYPR-OH; disulfide 6-27, 12-32, 16-34) | 0.183 | 103 | 1 | – | >9100 | 37.7% and 42.5% | 3384 | 0.43 | >9100 | – | – | – | – | – |
| CCCC[C@@H]1NC(=O)[C@@H]2CSSC[C@H](NC(=O)[C@H](CCCNC(=N)N)NC(=O)[C@H](CCCC)NC(=O)[C@H](CCC(=O)O)NC(=O)[C@@H](NC(=O)[C@@H]3CCCN3)[C@@H](C)CC)C(=O)N[C@@H](CO)C(=O)N[C@@H](C)C(=O)N[C@@H](CO)C(=O)N[C@@H](C(C)C)C(=O)N[C@@H](CCC(=O)O)C(=O)N[C@H]3CSSC[C@H](NC(=O)[C@H](CCCCN)NC(=O)[C@H](CCCCN)NC(=O)[C@H](CC(N)=O)NC1=O)C(=O)N[C@@H](CCCCN)C(=O)N[C@H](C(=O)N[C@@H](Cc1ccc(O)cc1)C(=O)N1CCC[C@H]1C(=O)N[C@@H](CCCNC(=N)N)C(=O)O)CSSC[C@H](NC(=O)[C@H](CCCCN)NC(=O)[C@H](CCC(N)=O)NC(=O)[C@H](CCCCN)NC3=O)C(=O)N[C@@H](CC(C)C)C(=O)N[C@@H](C)C(=O)N[C@@H](C)C(=O)N[C@@H]([C@@H](C)CC)C(=O)NCC(=O)N[C@@H](CO)C(=O)N[C@@H]([C@@H](C)CC)C(=O)N[C@@H](Cc1ccccc1)C(=O)NCC(=O)N[C@@H](CCCCN)C(=O)N2 [compound 95] (H-PIE[Nle]RCSASVECKQKCLAAIGSIFGKC[Nle]NKKCKCYPR-OH; disulfide 6-27, 12-32, 16-34) | – | – | – | – | – | – | – | – | – | >8600 | 44.5 | 5630 | 0.61 | >8600 |
| CCCC[C@@H]1NC(=O)[C@@H]2CSSC[C@H](NC(=O)[C@H](CCCNC(=N)N)NC(=O)[C@H](CCCC)NC(=O)[C@H](CC(=O)O)NC(=O)[C@@H](NC(=O)[C@@H](N)CC(N)=O)[C@@H](C)CC)C(=O)N[C@@H](CO)C(=O)N[C@@H](C)C(=O)N[C@@H](CO)C(=O)N[C@@H](C(C)C)C(=O)N[C@@H](CCC(=O)O)C(=O)N[C@H]3CSSC[C@H](NC(=O)[C@H](CCCCN)NC(=O)[C@H](CCCCN)NC(=O)[C@H](CC(N)=O)NC1=O)C(=O)N[C@@H](CCCCN)C(=O)N[C@H](C(=O)N[C@@H](Cc1ccc(O)cc1)C(=O)N1CCC[C@H]1C(=O)N[C@@H](CCCNC(=N)N)C(=O)O)CSSC[C@H](NC(=O)[C@H](CCCCN)NC(=O)[C@H](CCC(N)=O)NC(=O)[C@H](CCCCN)NC3=O)C(=O)N[C@@H](CC(C)C)C(=O)N[C@@H](CCCCN)C(=O)N[C@@H](C)C(=O)N[C@@H]([C@@H](C)CC)C(=O)NCC(=O)N[C@@H](CO)C(=O)N[C@@H]([C@@H](C)CC)C(=O)N[C@@H](Cc1ccccc1)C(=O)NCC(=O)N[C@@H](CCCCN)C(=O)N2 [compound 91] (H-NID[Nle]RCSASVECKQKCLKAIGSIFGKC[Nle]NKKCKCYPR-OH; disulfide 6-27, 12-32, 16-34) | – | – | – | – | >11300 | 39.6% | 7756 | 1.2 | >11300 | – | – | – | – | – |
